Measured values: patent publication US20150159169A1, “Plants Tolerant to HPPD Inhibitor Herbicides” (Bayer CropScience AG, priority 2009, published 2015)
Values joined by “and” are separate entries in the source; they are usually repeats but may differ in a detail not shown here. Equal values may be shown once. “Also recorded” adds a separate entry of the source.

Legend:
[1] = system: rice shoots containing AtHPPD; assay: Bleaching of rice shoots on MS/2 with tembotrione; type: cell-based; conditions: 2 weeks
Protocol: (§1) Rice transformation is achieved using methods well known in the art. Briefly, the Agrobacterium tumefaciens mediated transformation of rice was performed using immature embryos, from the restorer line 6G4317. Briefly, panicles from donor plants were harvested 8-12 days after pollination. The lemma of the immature seed was removed. Seeds were thereafter sterilized using a NaOCl based solution and Tween. The seeds were preinduced with […]. Agrobacterium tumefaciens cells are then co-cultivated with the preinduced seeds in presence of acetosyringone for 4 days at 24° C. in the dark. Thereafter, coleoptile from embryos are removed and washed, then put on a media supplemented with phosphinothricin for 3 weeks at 28° C. under a photoperiod rhythm of 16 hours. Then the growing calli were cut off from the embryos, and transferred to fresh media containing triacillin, phosphinothricin, L-proline and copper (II) sulfate.
(§2) For each callus-line and per Tembotrione concentration, 3 shoots, and randomly isolated from different callus pieces, were transferred to MS/2 with Tembotrione. As a general rule, transfer of the shoots from regeneration medium to MS/2 occurred 9 weeks after calli had been put on regeneration medium.
(§3) Cultures were incubated at 26.5° C. (16 hrs. photoperiod) and evaluation of symptoms occurred 2 weeks later.
(§4) New developing leaves of the shoots transferred have been scored on the basis of bleaching and categorized in 3 groups:
(§5) a) no bleaching b) intermediate bleaching c) complete bleaching
(§6) Within the category Intermediate bleaching′ a distinction has been made between shoots having new leaves showing only very little bleaching symptoms and thus tending to green leaves, and shoots with new leaves almost completely bleached.

[2] = system: rice shoots containing FMP27e; assay: Bleaching of rice shoots on MS/2 with tembotrione; type: cell-based; conditions: 2 weeks
Protocol: as §1, §2, §3, §4, §5, §6

[3] = system: tobacco calli containing SEQ ID No. 7 (Kordia algicida HPPD); assay: Rooting of calli on tembotrione media; type: cell-based, Nicotiana tabacum; conditions: 6 to 12 weeks, calli with SEQ ID No. 7
Protocol: (§7) The leaf disks were co-cultivated for 2 days with Agrobacterium tumefaciens cells containing either the binary vector FMP27ebv or AtHPPDbv. Then the leaf disks were transferred to a media allowing the regeneration of shoots for 6 weeks on MS (Musharige and Skoog, (1962), Physiol Plant 15(3): 473-497) media supplemented with BAP (1 mg/mL; Benzylaminopurine), carbenicillin (250 mg/mL), cefotaxine (250 mg/mL), kanamycin (75 mg/mL) and tembotrione (10^−6 M)
(§8) Regenerated calli were transferred on media to induce the development of roots for 6 to 12 weeks: MS (1/2), supplemented with carbenicillin (250 mg/mL), cefotaxine (250 mg/mL), kanamycin (75 mg/mL), and tembotrione (10^−6 M).
(§9) Regenerated shoot calli from a cell transformed with a nucleic acid sequence encoding an HPPD comprising SEQ ID No. 11 (Arabidopsis thaliana) or SEQ ID No. 7 (Kordia algicida) were transferred to a media inducing root growth which media was further supplemented with the HPPD inhibitor tembotrione for 6 to 12 weeks.

[4] = system: tobacco calli containing SEQ ID No. 11 (Arabidopsis thaliana HPPD); assay: Rooting of calli on tembotrione media; type: cell-based, Nicotiana tabacum; conditions: 6 to 12 weeks, calli with SEQ ID No. 11
Protocol: as §7, §8, §9

[5] = system: T1 tobacco plants containing Arabidopsis HPPD; assay: Glasshouse spray trial, % injury; type: in vivo, Nicotiana tabacum; conditions: 7DAT, 100 gAI/ha spray
Protocol: (§10) T0 Tobacco plants containing either the gene from Arabidopsis coding for HPPD or the gene FMP27e from Kordia algicida coding for FMP27 HPPD, mentioned above (Example 3), were transferred to the glasshouse (28/20° C.), to develop further and produce seeds. Those seeds were harvested and put on soil (ED73 mixed with sand and osmocote Pro) to germinate in the glasshouse (28/20° C.). Three to four weeks later, plantlets were transferred to single pots containing the soil mentioned above. Two weeks later, plants of a size 4-6 cm diameter were sprayed with either • tembotrione at 100 gAI/ha prepared from a WP20 (wettable powder 20%) formulation supplemented with ammonium sulfate and methyl ester raps oil, or • isoxaflutole at 100 gAI/ha prepared from a WP20 formulation supplemented with ammonium sulfate and methyl ester raps oil, or • bicyclopyrone at 100 gAI/ha prepared from a WP20 formulation supplemented with ammonium sulfate and methyl ester raps oil, or • “blind formulation” made from a WP20 formulation without active ingredient (AI) supplemented with ammonium sulfate and methyl ester raps oil, and were then transferred to a growth chamber with adequate light conditions (20000 Lux).
(§11) Table 6: Wild type tobacco plants (A) and T1 populations of tobacco events containing alternatively, the expression cassettes described above having the promoter CaMV 35S, the sequence coding for OTP and the sequence coding for Arabidopsis HPPD (B) or the promoter CaMV35S, the sequence encoding OTP, and the sequence FMP27e coding for the HPPD FMP27 (C). Assessments of herbicidal damage at 7 days after application (DAT) per spray with 100 g AI/ha of tembotrione or isoxaflutole supplemented with ammonium sulfate and methyl ester raps oil. […] Plants belonging to categories (B) and (C) have not been selected for the presence of the respective transgene prior to the herbicide application.

wild type tobacco plants = assay: Glasshouse spray trial, % injury; type: in vivo, Nicotiana tabacum; conditions: 7DAT, 100 gAI/ha spray; individual WT plants; 100% = bleaching as wild type
Protocol: as §10, §11

[6] = system: T1 tobacco plants containing FMP27e (Kordia algicida HPPD FMP27); assay: Glasshouse spray trial, % injury; type: in vivo, Nicotiana tabacum; conditions: 7DAT, 100 gAI/ha spray
Protocol: as §10, §11

[7] = system: soybean events expressing the FMP27 HPPD protein; assay: Soybean greenhouse response to tembotrione; type: in vivo; conditions: 100 g AI/ha, ten days after application; eight events
Protocol: Plants containing the transgene were then sprayed with HPPD inhibitor herbicides, as for example with tembotrione at a rate of 100 g AI/ha. Ten days after the application the symptoms due to the application of the herbicide were evaluated and compared to the symptoms observed on wild type plants under the same conditions. Eight events expressing the FMP27 HPPD protein have been generated from the green shoots of above and were transferred to the greenhouse. Four weeks after acclimation, i.e. plants at a developmental stage of 3-4 internodes were treated with 100 g AI/ha tembotrione prepared from a WP 20 formulation supplemented with ammonium sulfate and methyl ester raps oil. Ten days after application, the symptoms caused by the application of the HPPD inhibitor herbicide were evaluated and compared to the symptoms observed on treated non-transgenic wild-type soybean plants.

## CS(=O)(=O)c1ccc(C(=O)C2C(=O)CCCC2=O)c(Cl)c1COCC(F)(F)F [Tembotrione, 2-[2-chloro-4-(methylsulfonyl)-3-[(2,2,2,-tri-fluoroethoxy)methyl]benzoyl]-1,3-cyclo-hexanedione]
[1]; 1 μM
  N^o of shoots completely bleached: 12
  N^o of shoots with intermediate bleaching: 19
  N^o of shoots without bleaching: 27
[1]; 5 μM
  N^o of shoots completely bleached: 58
  N^o of shoots with intermediate bleaching: 2
  N^o of shoots without bleaching: 0
[2]; 1 μM
  N^o of shoots completely bleached: 10
  N^o of shoots with intermediate bleaching: 19
  N^o of shoots without bleaching: 28
[2]; 5 μM
  N^o of shoots completely bleached: 36
  N^o of shoots with intermediate bleaching: 21
  N^o of shoots without bleaching: 0
[3]
  % Elongation & rooting on 10^−6M tembotrione: 62%
[4]
  % Elongation & rooting on 10^−6M tembotrione: 0%
[5]; line 252, individual T1 plants
  % injury: 30% and 40% (3×) and 50% and 60% (2×) and 70% (2×) and 75% (3×) and 80%
[5]; line 258, individual T1 plants
  % injury: 100% (5×) and 30%
[5]; line 327, individual T1 plants
  % injury: 10% and 20% (2×) and 40% and 50% (2×) and 70% (5×) and 80% (4×)
Wild type tobacco plants
  % injury: 100%
[6]; line 121, individual T1 plants
  % injury: 0% (4×) and 5% (3×) and 10% (6×)
[6]; line 129, individual T1 plants
  % injury: 0% (2×) and 5% (2×) and 10% (2×) and 15% (2×) and 30% (2×)
[6]; line 218, individual T1 plants
  % injury: 0% (11×) and 5% (4×)
[7]
  bleaching symptoms of events: Two of the eight events didn't show any bleaching phenotype; also recorded: One event showed transitory light bleaching symptoms but recovered 14 days after tembotrione application; also recorded: remaining five events exhibited the bleaching like non-transgenic wild-type soybean plant
